Measurements taken from ChEMBL document CHEMBL3525899, “Identification of the cytochrome P450 and other enzymes involved in the in vitro oxidative metabolism of a novel antidepressant, Lu AA21004” (Drug Metab Dispos, 2012).

How the values were obtained:
[1] = target: T1, Cytochrome P450 2C8 (Homo sapiens, UniProt P10632); assay: Activity of human recombinant CYP2C8 expressed in microsomes isolated from human AHH-1 cells assessed as enzyme-mediated 1-(2-(2,4-dimethylphenylsulfinyl)phenyl)piperazine formation at 8 to 50 uM after 120 mins by HPLC/MS-MS analysis in presence of NADPH regenerating system with NADP+; format: ADME, cell-free; conditions: 2 h
T1 sequence (P10632 whole entry): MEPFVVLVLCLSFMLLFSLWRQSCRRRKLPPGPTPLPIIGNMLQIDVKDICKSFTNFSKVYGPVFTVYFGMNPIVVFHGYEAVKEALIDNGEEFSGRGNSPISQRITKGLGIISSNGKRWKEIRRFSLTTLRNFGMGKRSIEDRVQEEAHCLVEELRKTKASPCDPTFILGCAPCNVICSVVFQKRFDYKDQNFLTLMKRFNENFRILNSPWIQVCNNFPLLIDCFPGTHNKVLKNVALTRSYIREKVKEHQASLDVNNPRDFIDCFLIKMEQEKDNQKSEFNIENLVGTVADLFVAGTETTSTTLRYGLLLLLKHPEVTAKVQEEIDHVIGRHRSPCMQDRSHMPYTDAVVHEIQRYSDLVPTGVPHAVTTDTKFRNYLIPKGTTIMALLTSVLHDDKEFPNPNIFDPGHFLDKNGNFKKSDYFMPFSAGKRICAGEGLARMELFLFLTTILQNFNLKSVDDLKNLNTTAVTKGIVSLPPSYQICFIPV

[2] = system: Liver microsome; assay: Drug metabolism in pooled human liver microsomes assessed as formation of (3-methyl-4-(2-(piperazin-1-yl)phenylthio)phenyl)methanol after 30 mins by Michaelis-Menten plot analysis in presence of NADPH regenerating system with NADP+; format: ADME; conditions: 0.5 h, read-out: Km(app)
[3] = system: Liver microsome; assay: Drug metabolism in pooled human liver microsomes assessed as formation of 3-(2,4-dimethylphenylthio)-4-(piperazin-1-yl)phenol after 30 mins by Michaelis-Menten plot analysis in presence of NADPH regenerating system with NADP+; format: ADME; conditions: 0.5 h, read-out: Km(app)
[4] = target: Cytochrome P450 2C9 (Homo sapiens, UniProt P11712); assay: Activity of human recombinant CYP2C9 expressed in microsomes isolated from human AHH-1 cells assessed as enzyme-mediated 3-(2,4-dimethylphenylthio)-4-(piperazin-1-yl)phenol formation at 8 to 50 uM after 120 mins by HPLC/MS-MS analysis in presence of NADPH regenerating system with NADP+; format: ADME, cell-free; conditions: 2 h
[5] = target: T2, Cytochrome P450 2C19 (Homo sapiens, UniProt P33261); assay: Activity of human recombinant CYP2C19 expressed in microsomes isolated from human AHH-1 cells assessed as enzyme-mediated 3-(2,4-dimethylphenylthio)-4-(piperazin-1-yl)phenol formation at 8 to 50 uM after 120 mins by HPLC/MS-MS analysis in presence of NADPH regenerating system with NADP+; format: ADME, cell-free; conditions: 2 h
[6] = target: Cytochrome P450 2E1 (Homo sapiens, UniProt P05181); assay: Activity of human recombinant CYP2E1 expressed in microsomes isolated from human AHH-1 cells assessed as enzyme-mediated 3-(2,4-dimethylphenylthio)-4-(piperazin-1-yl)phenol formation at 8 to 50 uM after 120 mins by HPLC/MS-MS analysis in presence of NADPH regenerating system with NADP+; format: ADME, cell-free; conditions: 2 h
[7] = target: Cytochrome P450 3A4 (Homo sapiens, UniProt P08684); assay: Activity of human recombinant CYP3A4 expressed in microsomes isolated from human AHH-1 cells assessed as enzyme-mediated 3-(2,4-dimethylphenylthio)-4-(piperazin-1-yl)phenol formation at 8 to 50 uM after 120 mins by HPLC/MS-MS analysis in presence of NADPH regenerating system with NADP+; format: ADME, cell-free; conditions: 2 h
[8] = system: Liver microsome; assay: Drug metabolism in phenotyped human liver microsomes assessed as formation of 3-(2,4-dimethylphenylthio)-4-(piperazin-1-yl)phenol at 8 to 50 uM after 60 mins by HPLC/MS-MS analysis in presence of NADPH regenerating system with NADP+; format: ADME; conditions: 1 h
[9] = target: T3, Flavin-containing monooxygenase 3 (Homo sapiens, UniProt P31513); assay: (§1) Activity of human recombinant FMO3 expressed in microsomes isolated from baculovirus infected insect BTI-TN-5B1-4 cells assessed as enzyme-mediated 3-methyl-4-(2-(piperazin-1-yl)phenylthio)phenyl)methanol formation at 8 to 50 uM after 120 mins by HPLC/MS-MS analysis in presence of NADPH regenerating system with NADP+; format: ADME; conditions: 2 h
T3 sequence (P31513 whole entry): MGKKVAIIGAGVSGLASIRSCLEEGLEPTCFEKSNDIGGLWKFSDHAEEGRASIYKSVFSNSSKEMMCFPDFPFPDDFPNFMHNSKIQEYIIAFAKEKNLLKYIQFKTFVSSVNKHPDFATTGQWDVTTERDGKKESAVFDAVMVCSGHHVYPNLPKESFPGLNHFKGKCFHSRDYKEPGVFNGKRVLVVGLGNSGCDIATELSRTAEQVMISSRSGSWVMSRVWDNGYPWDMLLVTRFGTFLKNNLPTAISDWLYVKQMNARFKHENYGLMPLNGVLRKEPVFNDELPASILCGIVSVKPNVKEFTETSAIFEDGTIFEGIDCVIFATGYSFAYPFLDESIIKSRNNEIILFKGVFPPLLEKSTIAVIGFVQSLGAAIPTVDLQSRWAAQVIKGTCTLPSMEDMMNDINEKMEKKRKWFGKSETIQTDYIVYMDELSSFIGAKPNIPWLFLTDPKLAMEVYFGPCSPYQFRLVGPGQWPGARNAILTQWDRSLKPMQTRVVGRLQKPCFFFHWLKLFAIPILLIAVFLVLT

[10] = target: T3, Flavin-containing monooxygenase 3; assay: as §1, with “3-methyl-4-(2-(piperazin-1-yl)phenylthio)benzoic acid” for “3-methyl-4-(2-(piperazin-1-yl)phenylthio)phenyl)methanol”; format: ADME; conditions: 2 h
[11] = system: Liver microsome; assay: Drug metabolism in pooled human liver microsomes assessed as formation of 3-methyl-4-(2-(piperazin-1-yl)phenylthio)benzoic acid at 100 uM after 30 to 180 mins by HPLC/MS-MS analysis in presence of NADPH regenerating system with NADP+; format: ADME
[12] = target: Cytochrome P450 2D6 (Homo sapiens, UniProt P10635); assay: Activity of human recombinant CYP2D6 expressed in microsomes isolated from human AHH-1 cells assessed as enzyme-mediated (3-methyl-4-(2-(piperazin-1-yl)phenylthio)phenyl)methanol formation at 8 to 50 uM after 120 mins by HPLC/MS-MS analysis in presence of NADPH regenerating system with NADP+; format: ADME, cell-free; conditions: 2 h
[13] = target: T2, Cytochrome P450 2C19; assay: Activity of human recombinant CYP2C19 expressed in microsomes isolated from human AHH-1 cells assessed as enzyme-mediated (3-methyl-4-(2-(piperazin-1-yl)phenylthio)phenyl)methanol formation at 8 to 50 uM after 120 mins by HPLC/MS-MS analysis in presence of NADPH regenerating system with NADP+; format: ADME, cell-free; conditions: 2 h

T2 sequence (P33261 whole entry): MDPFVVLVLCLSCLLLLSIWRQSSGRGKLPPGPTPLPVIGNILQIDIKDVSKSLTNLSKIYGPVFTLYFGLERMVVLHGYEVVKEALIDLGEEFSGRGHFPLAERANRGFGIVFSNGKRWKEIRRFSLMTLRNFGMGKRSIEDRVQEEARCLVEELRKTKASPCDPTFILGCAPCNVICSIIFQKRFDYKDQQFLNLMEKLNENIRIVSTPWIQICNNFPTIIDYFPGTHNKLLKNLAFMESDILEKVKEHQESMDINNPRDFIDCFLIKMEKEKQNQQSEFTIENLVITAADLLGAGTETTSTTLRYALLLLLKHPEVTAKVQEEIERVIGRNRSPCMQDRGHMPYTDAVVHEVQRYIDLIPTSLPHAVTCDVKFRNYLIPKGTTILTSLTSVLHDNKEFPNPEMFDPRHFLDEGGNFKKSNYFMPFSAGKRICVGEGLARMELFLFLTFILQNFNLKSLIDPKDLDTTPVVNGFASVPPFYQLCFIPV
Sequence of Cytochrome P450 3A4 (P08684 whole entry): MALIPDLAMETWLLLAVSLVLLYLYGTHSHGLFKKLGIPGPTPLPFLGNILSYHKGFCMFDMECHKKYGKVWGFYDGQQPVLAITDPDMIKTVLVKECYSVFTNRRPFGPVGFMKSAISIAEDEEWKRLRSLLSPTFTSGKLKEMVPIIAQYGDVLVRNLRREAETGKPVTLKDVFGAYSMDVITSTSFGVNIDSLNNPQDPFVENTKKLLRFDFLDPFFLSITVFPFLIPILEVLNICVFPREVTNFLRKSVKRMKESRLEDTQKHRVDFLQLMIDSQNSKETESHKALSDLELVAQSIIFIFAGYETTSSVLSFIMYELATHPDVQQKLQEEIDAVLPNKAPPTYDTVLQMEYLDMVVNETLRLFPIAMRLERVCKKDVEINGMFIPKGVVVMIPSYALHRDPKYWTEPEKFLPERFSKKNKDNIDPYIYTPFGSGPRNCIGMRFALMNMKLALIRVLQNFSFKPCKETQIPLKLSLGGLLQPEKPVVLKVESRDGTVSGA
Sequence of Cytochrome P450 2E1 (P05181 whole entry): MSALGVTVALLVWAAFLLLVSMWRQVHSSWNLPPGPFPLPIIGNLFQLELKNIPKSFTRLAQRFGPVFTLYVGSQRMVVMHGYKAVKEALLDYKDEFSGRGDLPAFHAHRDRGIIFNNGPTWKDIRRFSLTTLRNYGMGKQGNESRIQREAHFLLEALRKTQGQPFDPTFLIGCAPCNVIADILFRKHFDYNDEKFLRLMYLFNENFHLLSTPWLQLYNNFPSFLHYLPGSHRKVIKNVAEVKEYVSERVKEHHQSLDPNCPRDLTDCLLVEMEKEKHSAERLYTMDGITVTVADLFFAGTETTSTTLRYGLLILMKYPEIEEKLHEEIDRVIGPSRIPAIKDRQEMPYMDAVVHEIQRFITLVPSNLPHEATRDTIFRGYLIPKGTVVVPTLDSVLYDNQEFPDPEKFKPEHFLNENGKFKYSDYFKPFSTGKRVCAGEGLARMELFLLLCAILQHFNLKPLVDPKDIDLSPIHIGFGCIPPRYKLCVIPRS
Sequence of Cytochrome P450 2D6 (P10635 whole entry): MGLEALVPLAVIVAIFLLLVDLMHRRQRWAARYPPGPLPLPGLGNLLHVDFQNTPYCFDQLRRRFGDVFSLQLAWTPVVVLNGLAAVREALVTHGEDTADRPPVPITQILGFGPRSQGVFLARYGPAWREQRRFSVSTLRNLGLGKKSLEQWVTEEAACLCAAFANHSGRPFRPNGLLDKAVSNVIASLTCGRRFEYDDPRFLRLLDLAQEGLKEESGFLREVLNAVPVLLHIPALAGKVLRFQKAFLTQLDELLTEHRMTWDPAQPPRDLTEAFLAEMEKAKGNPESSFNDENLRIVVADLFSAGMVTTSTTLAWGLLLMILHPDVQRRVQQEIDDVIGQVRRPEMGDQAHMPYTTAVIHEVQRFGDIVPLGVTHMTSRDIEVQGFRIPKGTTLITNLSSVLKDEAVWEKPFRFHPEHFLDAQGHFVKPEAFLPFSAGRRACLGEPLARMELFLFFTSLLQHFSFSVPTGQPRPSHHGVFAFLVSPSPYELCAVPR
Sequence of Cytochrome P450 2C9 (P11712 whole entry): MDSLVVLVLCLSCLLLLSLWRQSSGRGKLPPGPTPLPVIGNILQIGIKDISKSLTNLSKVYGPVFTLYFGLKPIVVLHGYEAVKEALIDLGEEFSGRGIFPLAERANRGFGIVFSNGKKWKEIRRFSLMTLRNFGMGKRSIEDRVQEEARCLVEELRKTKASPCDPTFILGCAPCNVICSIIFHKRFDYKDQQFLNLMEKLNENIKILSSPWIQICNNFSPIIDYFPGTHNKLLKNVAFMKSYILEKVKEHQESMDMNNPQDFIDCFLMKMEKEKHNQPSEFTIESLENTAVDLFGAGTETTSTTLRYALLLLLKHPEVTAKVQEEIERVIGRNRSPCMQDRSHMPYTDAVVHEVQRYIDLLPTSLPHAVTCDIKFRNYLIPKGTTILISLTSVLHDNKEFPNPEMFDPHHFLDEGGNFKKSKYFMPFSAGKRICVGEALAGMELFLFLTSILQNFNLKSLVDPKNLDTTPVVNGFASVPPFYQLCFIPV

Drug metabolism [1]: metabolite_detected
Km [2]: 231 µM
Km [3]: 323 µM
Drug metabolism [4]: metabolite_detected
Drug metabolism [5]: metabolite_detected
Drug metabolism [6]: metabolite_not_detected
Drug metabolism [7]: metabolite_not_detected
Drug metabolism [8]: metabolite_detected
Drug metabolism [9]: metabolite_not_detected
Drug metabolism [10]: metabolite_not_detected
Drug metabolism [11]: metabolite_detected
Drug metabolism [12]: metabolite_detected
Drug metabolism [13]: metabolite_detected
SMILES: Br.Cc1ccc(Sc2ccccc2N2CCNCC2)c(C)c1 [VORTIOXETINE HYDROBROMIDE]
